From ChEMBL document CHEMBL3774306, “Bisimidazoline arylamides binding to the DNA minor groove: N1-hydroxylation enhances binding affinity and selectivity to AATT sites” (Medchemcomm, 2015)
Calls of active or inactive are those of the source. The calls are words filed in the database; no cut-off is given here.

How the values were obtained:
[1] = Binding affinity to fish sperm DNA assessed as hypochromicity change at 30 uM by UV-vis spectrophotometry relative to control; details: Hyperoartia
[2] = species on record: Homo sapiens; test: Binding affinity to CGAATTCG dsDNA (unknown origin) assessed as spectral changes at 2.5 uM by UV-vis spectrophotometry
[3] = species on record: Homo sapiens; test: Binding affinity to CATATATAT dsDNA (unknown origin) assessed as spectral changes at 2.5 uM by UV-vis spectrophotometry
[4] = species on record: Homo sapiens; test: Binding affinity to CGCGCGCG dsDNA (unknown origin) assessed as spectral changes at 2.5 uM by UV-vis spectrophotometry
[5] = Binding affinity to biotin labelled 5'-CGAATTCGTCTCCGAATTCG-3' hairpin dsDNA (unknown origin) immobilized on biosensor chip by surface plasmon resonance analysis; parameters: species or system Homo sapiens
[6] = Binding affinity to biotin labelled 5'-CATATATATCCCCATATATATG-3' hairpin dsDNA (unknown origin) immobilized on biosensor chip by surface plasmon resonance analysis; parameters: species or system Homo sapiens
[7] = Binding affinity to biotin labelled 5'-CGCGCGCGTTTTCGCGCGCG-3' hairpin dsDNA (unknown origin) immobilized on biosensor chip by surface plasmon resonance analysis; parameters: species or system Homo sapiens
[8] = species on record: Homo sapiens; test: Selectivity ratio of Kd for biotin labelled 5'-CATATATATCCCCATATATATG-3' hairpin dsDNA (unknown origin) to Kd for biotin labelled 5'-CGAATTCGTCTCCGAATTCG-3' hairpin dsDNA (unknown origin)
[9] = species on record: Homo sapiens; test: Ratio of primary binding constant to secondary binding constant for biotin labelled 5'-CATATATATCCCCATATATATG-3' hairpin dsDNA (unknown origin) immobilized on biosensor chip by surface plasmon resonance analysis
[10] = species on record: Homo sapiens; test: Ratio of primary binding constant to secondary binding constant for biotin labelled 5'-CGAATTCGTCTCCGAATTCG-3' hairpin dsDNA (unknown origin) immobilized on biosensor chip by surface plasmon resonance analysis
[11] = species on record: Homo sapiens; test: Selectivity ratio of Kd for biotin labelled 5'-CGCGCGCGTTTTCGCGCGCG-3' hairpin dsDNA (unknown origin) to Kd for biotin labelled 5'-CATATATATCCCCATATATATG-3' hairpin dsDNA (unknown origin)
[12] = species on record: Homo sapiens; test: Binding affinity to CGAATTCG dsDNA (unknown origin) assessed as isosbestic point at 2.5 uM by UV-vis spectrophotometry
[13] = species on record: Homo sapiens; test: Binding affinity to CATATATAT dsDNA (unknown origin) assessed as isosbestic point at 2.5 uM by UV-vis spectrophotometry
[14] = species on record: Homo sapiens; test: Binding affinity to CGCGCGCG dsDNA (unknown origin) assessed as isosbestic point at 2.5 uM by UV-vis spectrophotometry
[15] = species on record: Homo sapiens; test: Binding affinity to GAATAATCGCGATTATTC dsDNA (39 bp) (unknown origin) assessed as slow binding constant
[16] = species on record: Homo sapiens; test: Binding affinity to GAATAATCGCGATTATTC dsDNA (39 bp) (unknown origin) assessed as long lasting constant
[17] = Binding affinity to biotin labelled 5'-CATATATATCCCCATATATATG-3' hairpin dsDNA (unknown origin) immobilized on streptavidin-derivatized gold chip incubated for 5 mins followed by dissociation period of 5 mins by surface plasmon resonance analysis; parameters: species or system Homo sapiens

SMILES | Activity [1] [%] | Kd [5] [µM] | Kd [6] [µM] | Kd ([7]; read-out: Kd) [µM] | Ratio [9] | Ratio [10] | further results
O=C(Nc1ccc(NC2=NCCN2)cc1)Nc1ccc(NC2=NCCN2)cc1 | – | 11.6 | 8.06 | 159 | 100 | 100 | Selectivity ratio [11]: 10
CC/N=C(\N)Nc1ccc(NC(=O)c2ccc(N/C(N)=N/CC)cc2)cc1 | – | – | – | > 10 | – | – | –
N=C(N)Nc1ccc(NC(=O)c2ccc(NC(=N)N)cc2)cc1 | – | – | – | > 10 | – | – | –
c1cc(NC2=NCCN2)ccc1CCc1ccc(NC2=NCCN2)cc1 | – | 2.78 | 4.35 | 19.6 | 5 | 5 | –
CC(C)/N=C(\N)Nc1ccc(NC(=O)c2ccc(N/C(N)=N/C(C)C)cc2)cc1 | – | – | – | > 10 | – | – | –
c1cc(NC2=NCCN2)cc(Nc2ccc(NC3=NCCN3)cc2)c1 | – | 2.7 | – | – | 100 | 100 | Kd [7]: Not Active; Kd [17]: 2.17 µM
CCO[N+]1=C(Nc2ccc(CCc3ccc(NC4=[N+](OCC)CCN4)cc3)cc2)NCC1 | 9 | > 29 | > 29 | > 29 | 100 | 100 | –
CC/N=C(\N)Nc1ccc(NC(=O)Nc2ccc(N/C(N)=N/CC)cc2)cc1 | – | > 29 | > 29 | – | – | – | Kd [7]: Not Active

Further lines, with some results ahead:

Activity [1] [%] | Kd [5] [µM] | Kd [6] [µM] | Kd ([7]; read-out: Kd) [µM] | Ratio [9] | Ratio [10] | SMILES | further results
9 | 0.077 | 0.273 | 18.5 | 100 | 100 | O=C(Nc1ccc(NC2=[N+]([O-])CCN2)cc1)c1ccc(NC2=[N+]([O-])CCN2)cc1 | Activity [2]: Active; Activity [3]: Active; Activity [4]: Active; Selectivity ratio [8]: 3.5
– | 0.568 | 1.79 | 66.7 | 100 | 100 | [O-][N+]1=C(Nc2ccc(Nc3cccc(NC4=[N+]([O-])CCN4)c3)cc2)NCC1 | Activity [12]: 325 nm; Activity [13]: 335 nm; Activity [14]: inactive; K [15]: 38 M⁻¹ s⁻¹; K [16]: 0.00265 s⁻¹
9 | 0.256 | 0.351 | > 10 | 100 | 100 | CO[N+]1=C(Nc2ccc(NC(=O)c3ccc(NC4=[N+](OC)CCN4)cc3)cc2)NCC1 | Selectivity ratio [8]: 1.5
9 | 0.87 | 4 | 76.9 | 30 | 30 | [O-][N+]1=C(Nc2ccc(CCc3ccc(NC4=[N+]([O-])CCN4)cc3)cc2)NCC1 | –
– | 0.166 | 0.307 | > 10 | 100 | 100 | O=C(Nc1ccc(NC2=NCCN2)cc1)c1ccc(NC2=NCCN2)cc1 | Selectivity ratio [8]: 1.5
